From patent US20240033244A1, “COMPOSITIONS AND METHODS FOR INHIBITING YTHDF1” (SHANGHAI INSTITUTE OF MATERIA MEDICA, CHINESE ACADEMY OF …, priority 2020, published 2024)

Assays:
[1] = target: T1, YTHDF1 mutant N378A (Homo sapiens, UniProt Q9BYJ9, N378A); test: FP assay with YTHDF1 mutant N378A; type: binding
T1 construct: GST (N, cleaved yes); made in house; host or cells: E. coli BL21 (DE3)
Procedure: The protein YTHDF1 (361-559) (SEQ ID NO: 2) and its mutants (SEQ ID NOs: 4-13) were cloned into pGEx-6P-1 vector (obtained from YouBio Co, Ltd, Catalog NO: VT1258), and the His-YTHDF1 (361-559) (SEQ ID NO: 3) used in AlphaScreen Assay was cloned into modified pET28a vector (obtained from YouBio Co, Ltd, Catalog NO: VT1207). The vectors were transformed into E. coli BL21 (DE3) cells and cultured at 37° C. When OD value reached 0.6˜0.8, 1 mM Isopropyl-β-D-thiogalactopyranoside was added to overexpress the protein at 16° C. overnight. […] Then, the proteins were further purified via cation exchange (HiTrap SP, GE Healthcare) and finally through a Superdex 75 10/300 column (GE Healthcare). At last, the purified YTHDF1(361-559) and the mutants were kept in buffer which contains 20 mM Hepes (pH 7.4) and 200 mM NaCl. For His-YTHDF1 (361-559), the protein was purified via Ni-NTA chromatography (HisTrap FF, GE Healthcare), followed by cation exchange and Superdex 75 10/300 column in sequence. And the obtained protein was kept in the buffer with the same ingredients.
All of the YTHDF1 (361-559), the 5′-FAM labeled m^6A-containing mRNA (5′-FAM-[…] (m^6A) CUGUG-3′, SEQ ID NO: 14) and the candidate compounds were diluted with assay buffer (20 mM Hepes (pH 7.4), 50 mM NaCl, 0.01% (v/v) tween 20, 5% (v/v) glycerol). […] At last, the mixtures were measured by Envision Readers (PerkinElmer). […]

[2] = target: T2, YTHDF1 (361-559) (Homo sapiens, UniProt Q9BYJ9); test: NMR CPMG binding experiment; settings: 200 μM SAA; 5 μM, 10 μM and 20 μM YTHDF1
T2 construct: GST (N, cleaved yes); made in house; host or cells: E. coli BL21 (DE3)
T2 sequence (Q9BYJ9 with tags, fused parts or gaps): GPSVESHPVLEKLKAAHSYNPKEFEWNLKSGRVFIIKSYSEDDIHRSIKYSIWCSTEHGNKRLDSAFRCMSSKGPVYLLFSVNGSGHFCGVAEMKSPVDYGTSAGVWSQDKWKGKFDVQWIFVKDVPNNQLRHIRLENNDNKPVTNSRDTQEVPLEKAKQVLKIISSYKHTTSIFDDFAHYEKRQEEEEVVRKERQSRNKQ
Procedure: NMR CPMG experiment was performed at 25° C. using Bruker Avance III spectrometer (600 MHz proton frequency) with a cryogenically cooled probe (Bruker biospin, Germany). YTHDF1 (361-559) was diluted to 20 μM, 10 μM and 5 μM in phosphate buffer (20 mM NaH2PO4, 20 mM Na2HPO4, 150 mM NaCl, pH 7.4, D2O). […] The solvent-suppressed 1D ^1H CPMG was obtained via the pulse sequence (RD-90°-(τ-180°-τ) n-ACQ). In the pre-saturation procedure, a 54.78 dB pulse in 4 s duration of the recycle delay (RD) was applied to eliminate water resonance. Then, the 900 pulse length was modulated to 11.82 μs approximately. And at last, a total of 4 dummy scans and 64 free induction decays (FIDs) were collected into […] acquisition points, covering a spectral width of 12 kHz (20 ppm) with the acquisition time (ACQ) of 2.73 s.
Then, qualitative and quantitative experiments were performed to explore the binding between SAA and YTHDF1. Firstly, nuclear magnetic resonance (NMR) Carr-Purcell-Meiboom-Gill (CPMG) experiments were conducted.

[3] = system: B16-OVA tumor cells; test: B16-OVA tumor cell proliferation in vitro; type: cell-based, mouse; settings: 5×10^4 B16-OVA cells, various doses, 12 hours
Procedure: In a further experiment, tumor cells were treated with SAA in vitro. Briefly, 5×10^4 B16-OVA tumor cells were treated with SAA of various doses respectively in a 96-well plate. Cell number was counted 12 hours after said SAA treatment.

[4] = system: B16-OVA tumor; test: B16-OVA tumor growth, SAA with anti-PD-L1 antibody; type: in vivo, mouse; settings: 5×10^5 B16-OVA; 10 μM SAA day 9 and 11; 100 ug anti-PD-L1 antibody day 9
Procedure: For B6 mice tumor growth, 5×10^5 B16-OVA or 1×10^6 E.G7-OVA tumor cells were inoculated subcutaneously (s.c.) into the flank of mice. Tumor length (a) and width (b) was measured every two days and tumor volume was calculated by the formula ab^2/2. For the inhibitor treatment, 10 μM SAA or DMSO was injected intraperitoneally (i.p.) on day 9 and 11 after tumor inoculation. For other mice model (rag1^−/− and Ythdf1 conditional knockout), times and dose of inhibitor treatment was the same. For α-PD-L1 and SAA combination treatment, 5×10^5 B16-OVA tumor cells were inoculated subcutaneously into the flank of mice. 100 μg α-PD-L1 antibody (clone 10F.9G2) or rat immunoglobulin were administered at day 9 after tumor inoculation. 10 μM SAA or DMSO was administered in the same way on day 9 and 11 after tumor injection.
Wild-type mice were injected subcutaneously with 5×10^5 B16-OVA cells. 10 μM SAA was injected to each mouse on day 9 and day 11. Mice were also treated with 100 ug anti-PD-L1 antibody on day 9. Tumor growth was monitored over time.

T1 sequence (Q9BYJ9 with tags, fused parts or gaps N378A): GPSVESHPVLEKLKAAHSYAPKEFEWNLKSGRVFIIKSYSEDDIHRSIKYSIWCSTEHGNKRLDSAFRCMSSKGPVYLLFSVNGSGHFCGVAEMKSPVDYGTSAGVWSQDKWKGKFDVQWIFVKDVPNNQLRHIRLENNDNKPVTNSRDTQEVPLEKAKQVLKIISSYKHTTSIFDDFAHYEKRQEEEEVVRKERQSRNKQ

For `O=C(/C=C/c1ccc(O)c(O)c1/C=C/c1ccc(O)c(O)c1)O[C@H](Cc1ccc(O)c(O)c1)C(=O)O` [SAA, Salvianolic Acid A], the “inhibitory activity against mutant binding to m6A versus wildtype” value [1] was “significantly weaker than that against wildtype YTHDF1”, the “CPMG signal of the compound on addition of YTHDF1” value [2] was “signal decreased” and the “proliferation of tumor cells (cell number)” value [3] was “not affected”. The B16-OVA tumor growth [4] was “partially inhibit”.
